Patent publication EP0807435A2, “Indirect HMG-CoA-reductase inhibitor” (Sertürner Arzneimittel GmbH, priority 1996, dated 1997)

What was measured:
[1] = test system: kultivierten Rattenhepatocyten; assay: Incorporation of 14C-labelled acetate into the non-saponifiable neutral lipid fraction (cholesterol de novo synthesis); type: cell-based, Ratten
Experimental: Erfindungsgemäß wurde überraschenderweise an Hand von Messungen des Einbaus von ^14[…] in die Fraktion der nicht-verseifbaren neutralen Lipide von kultivierten Rattenhepatocyten nachgewiesen, daß Luteolin, seine Derivate und […] Verbindungen konzentrationsabhängig die Neusynthese von Cholesterin in […]. Bei Verwendung eines Luteolin-7-0-glucosid-[…] Kulturmedium in einer Konzentration zwischen 0,02 und 0,1 mg/ml […] (Plateau) von ca. 20% ein, ohne daß zytotoxische Wirkungen nachweisbar wären. Bei höheren Konzentrationen (bis 1 mg/ml) […] noch […] auf (maximal 85 %), ohne […] von 2 mg/ml einsetzen. Durch Ersatz des ^14[…] durch […] vor der Bildung von Mevalonat lag; Hemmwirkungen, die zu einer Verschiebung des Musters der Vorläufersterine des Cholesterin […]. Die Aktivität der HMG-CoA-Reduktase, des Schlüsselenzyms der Cholesterinsynthese, wird somit indirekt über […] oder […] des Enzyms gedrosselt.

[2] = rabbits, blood lipids raised by cholesterol diet (200 mg Cholesterin pro kg Körpergewicht über 60 Tage); Chem. Abstr. 76; cited from earlier work

Row | Compound | Neusynthese von Cholesterin in den Leberzellen ([1]; 14C-acetate incorporation, cultured rat hepatocytes) | lipidsenkende Wirkung im Tierversuch [2] | Hemmung der Cholesterinneusynthese ([1]; concentrations that are maximally achievable in artichoke leaf extract preparations)
1 | O=c1cc(-c2ccc(O)c(O)c2)oc2cc(O)cc(O)c12 [Luteolin, 31,41,5-Tetrahydroxyflavon] | konzentrationsabhängig die Neusynthese von Cholesterin in den Leberzellen vermindern | lipidsenkende Wirkung | 
2 | O=C(/C=C/c1ccc(O)c(O)c1)O[C@@H]1C[C@@](OC(=O)/C=C/c2ccc(O)c(O)c2)(C(=O)O)C[C@@H](O)[C@@H]1O [Cynarin, 1,5-Di-Caffeoyl-D-Chinasäure, reference compound] |  |  | keinerlei Hemmung
3 | Luteolin-7-Glycosid |  | lipidsenkende Wirkung | 
